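Dose response: 5 concentrations. Exposure: 48 h. Format: 96-well plates. Endpoint: linear interpolation; highest concentration if not reached. GI50 is the concentration that inhibits growth by half.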 Active and inactive are the calls of the source. Rule as the data show it: active = GI50 up to about 1.1 µM and inactive = higher.
Tests used:
Assay in all cases: DTP human tumour cell line panel, 48 h
NCI/ADR-RES = test system: NCI/ADR-RES
MCF7 = test system: MCF7
SK-MEL-28 = test system: SK-MEL-28
Hs-578T = test system: Hs-578T
CAKI-1 = test system: CAKI-1
M14 = test system: M14
SN12C = test system: SN12C
HOP-62 = test system: HOP-62
NCI-H23 = test system: NCI-H23
HT-29 = test system: HT-29
T47D = test system: T47D
NCI-H522 = test system: NCI-H522
RXF 393 = test system: RXF 393
MDA-MB-435 = test system: MDA-MB-435
TK-10 = test system: TK-10
MDA-N = test system: MDA-N
SNB-78 = test system: SNB-78
M19-MEL = test system: M19-MEL
KM-20L2 = test system: KM-20L2

CCN1CCN=c2c3cc(OC)ccc3n3cnc4ccc1c2c43
GI50 (NCI/ADR-RES): 0.145 µM (active) | GI50 (MCF7): 0.219 µM (active) | GI50 (SK-MEL-28): 0.506 µM (active) | GI50 (Hs-578T): 0.313 µM (active) | GI50 (CAKI-1): 0.34 µM (active) | GI50 (M14): 0.245 µM (active) | GI50 (SN12C): 0.142 µM (active) | GI50 (HOP-62): 0.193 µM (active) | GI50 (NCI-H23): 0.328 µM (active) | GI50 (HT-29): 0.173 µM (active) | GI50 (T47D): 0.39 µM (active) | GI50 (NCI-H522): 0.00865 µM (active) | GI50 (RXF 393): 0.33 µM (active) | GI50 (MDA-MB-435): 0.197 µM (active) | GI50 (TK-10): 0.411 µM (active) | GI50 (MDA-N): 0.256 µM (active)

CCOC(=O)/C=C/C1=C(Br)[C@@]2(C)CC[C@@H]3c4ccc(O)cc4CC[C@H]3[C@@H]2C1
GI50 (NCI/ADR-RES): 14.7 µM (inactive) | GI50 (MCF7): 13.6 µM (inactive) | GI50 (SK-MEL-28): 16.4 µM (inactive) | GI50 (Hs-578T): 15.6 µM (inactive) | GI50 (CAKI-1): 16.4 µM (inactive) | GI50 (M14): 11.7 µM (inactive) | GI50 (SN12C): 13.6 µM (inactive) | GI50 (HOP-62): 14.4 µM (inactive) | GI50 (NCI-H23): 13.7 µM (inactive) | GI50 (HT-29): 14.6 µM (inactive) | GI50 (T47D): 4.86 µM (inactive) | GI50 (NCI-H522): 4.02 µM (inactive) | GI50 (RXF 393): 15.7 µM (inactive) | GI50 (MDA-MB-435): 15.2 µM (inactive) | GI50 (TK-10): 17.9 µM (inactive) | GI50 (MDA-N): 13.8 µM (inactive)

CC1(C)C2C/C(=C\c3ccccc3)C(=O)C1C2 (configuration not stated)
GI50 (SK-MEL-28): 87.5 µM (inactive) | GI50 (SNB-78): > 100 µM (inactive) | GI50 (CAKI-1): > 100 µM (inactive) | GI50 (M14): > 100 µM (inactive) | GI50 (SN12C): > 100 µM (inactive) | GI50 (M19-MEL): > 100 µM (inactive) | GI50 (HOP-62): > 100 µM (inactive) | GI50 (NCI-H23): 55.8 µM (inactive) | GI50 (HT-29): 87.9 µM (inactive) | GI50 (NCI-H522): 40.9 µM (inactive) | GI50 (RXF 393): 27.6 µM (inactive) | GI50 (TK-10): > 100 µM (inactive)

CC(=O)OC1c2ccccc2CCCCCCC12OCCO2 (configuration not stated)
GI50 (SK-MEL-28): > 100 µM (inactive) | GI50 (SNB-78): > 100 µM (inactive) | GI50 (CAKI-1): 51.9 µM (inactive) | GI50 (M14): 86.5 µM (inactive) | GI50 (SN12C): > 100 µM (inactive) | GI50 (HOP-62): > 100 µM (inactive) | GI50 (NCI-H23): > 100 µM (inactive) | GI50 (HT-29): > 100 µM (inactive) | GI50 (KM-20L2): > 100 µM (inactive) | GI50 (NCI-H522): 50.9 µM (inactive) | GI50 (RXF 393): > 100 µM (inactive) | GI50 (TK-10): > 100 µM (inactive)

CCOC(=O)N1CCN(Cc2cc(=O)n3ccc(C)cc3n2)CC1
GI50 (NCI/ADR-RES): > 100 µM (inactive) | GI50 (MCF7): > 100 µM (inactive) | GI50 (SK-MEL-28): > 100 µM (inactive) | GI50 (Hs-578T): > 100 µM (inactive) | GI50 (CAKI-1): > 100 µM (inactive) | GI50 (M14): > 100 µM (inactive) | GI50 (SN12C): > 100 µM (inactive) | GI50 (HOP-62): > 100 µM (inactive) | GI50 (NCI-H23): > 100 µM (inactive) | GI50 (HT-29): > 100 µM (inactive) | GI50 (T47D): > 100 µM (inactive) | GI50 (NCI-H522): > 100 µM (inactive) | GI50 (RXF 393): > 100 µM (inactive) | GI50 (MDA-MB-435): > 100 µM (inactive) | GI50 (TK-10): > 100 µM (inactive) | GI50 (MDA-N): > 100 µM (inactive)

COc1ccc(/N=C(/[N-]n2c(=O)c(C)nn(C)c2=S)N(c2ccc(OC)cc2)c2n[n+]3c(=O)c(C)nn(C)c3s2)cc1
GI50 (SK-MEL-28): > 100 µM (inactive) | GI50 (SNB-78): > 100 µM (inactive) | GI50 (M14): > 100 µM (inactive) | GI50 (SN12C): > 100 µM (inactive) | GI50 (M19-MEL): > 100 µM (inactive) | GI50 (HOP-62): > 100 µM (inactive) | GI50 (NCI-H23): > 100 µM (inactive) | GI50 (HT-29): > 100 µM (inactive) | GI50 (KM-20L2): > 100 µM (inactive) | GI50 (NCI-H522): > 100 µM (inactive) | GI50 (RXF 393): > 100 µM (inactive)

CSc1nc(=O)c(C#N)c(-c2ccccc2)n1C1OC(COC(C)=O)C(OC(C)=O)C(OC(C)=O)C1OC(C)=O (configuration not stated)
GI50 (NCI/ADR-RES): > 100 µM (inactive) | GI50 (MCF7): > 100 µM (inactive) | GI50 (SK-MEL-28): > 100 µM (inactive) | GI50 (Hs-578T): 39.8 µM (inactive) | GI50 (CAKI-1): > 100 µM (inactive) | GI50 (M14): > 100 µM (inactive) | GI50 (SN12C): > 100 µM (inactive) | GI50 (HOP-62): > 100 µM (inactive) | GI50 (NCI-H23): > 100 µM (inactive) | GI50 (HT-29): > 100 µM (inactive) | GI50 (T47D): 86.3 µM (inactive) | GI50 (NCI-H522): > 100 µM (inactive) | GI50 (RXF 393): 94.4 µM (inactive) | GI50 (MDA-MB-435): > 100 µM (inactive) | GI50 (TK-10): > 100 µM (inactive) | GI50 (MDA-N): > 100 µM (inactive)

CCOC(=O)CSc1nc(N)c2c(-c3ccccc3)c3c(nc2n1)CCCC3
GI50 (NCI/ADR-RES): > 100 µM (inactive) | GI50 (MCF7): > 100 µM (inactive) | GI50 (SK-MEL-28): > 100 µM (inactive) | GI50 (Hs-578T): 65.8 µM (inactive) | GI50 (CAKI-1): > 100 µM (inactive) | GI50 (M14): > 100 µM (inactive) | GI50 (SN12C): > 100 µM (inactive) | GI50 (HOP-62): > 100 µM (inactive) | GI50 (NCI-H23): > 100 µM (inactive) | GI50 (HT-29): > 100 µM (inactive) | GI50 (T47D): > 100 µM (inactive) | GI50 (NCI-H522): > 100 µM (inactive) | GI50 (RXF 393): > 100 µM (inactive) | GI50 (MDA-MB-435): > 100 µM (inactive) | GI50 (TK-10): > 100 µM (inactive) | GI50 (MDA-N): > 100 µM (inactive)

CCCn1c(SCCSc2c3ccccc3c(-c3nc(F)nc(F)n3)n2CCC)c2ccccc2c1-c1nc(F)nc(F)n1
GI50 (SK-MEL-28): > 100 µM (inactive) | GI50 (SNB-78): > 100 µM (inactive) | GI50 (CAKI-1): > 100 µM (inactive) | GI50 (M14): > 100 µM (inactive) | GI50 (SN12C): > 100 µM (inactive) | GI50 (HOP-62): > 100 µM (inactive) | GI50 (NCI-H23): > 100 µM (inactive) | GI50 (HT-29): > 100 µM (inactive) | GI50 (KM-20L2): 91.6 µM (inactive) | GI50 (NCI-H522): > 100 µM (inactive) | GI50 (RXF 393): > 100 µM (inactive) | GI50 (TK-10): > 100 µM (inactive)
